Source: patent publication US8637537B2, “Serine/threonine kinase inhibitors” (Genentech, Inc., priority 2011, dated 2014)
Where two headings read alike, the source gives them in different places.

Target: T1, human recombinant GST-PAK1-KD protein (Homo sapiens, UniProt Q13153)
T1 construct: residues #249-545 of human PAK1, UniProtKP/Swiss Q13153; His6 (N); made in house; host or cells: Sf9 insect cells, pAcGP67 baculovirus expression vector
Test: GST-PAK1-KD (kinase domain) biochemical assay, microfluidic mobility shift
Description: Activity of human recombinant GST-PAK1-KD protein was assessed in vitro assay by observing the phosphorylation of a fluorogenic peptide substrate.
The peptide substrate is a consensus sequence based on various PAK1 substrates reported in the scientific literature. […] Incubations were carried out at 22° C. in MatriCal MP101 384-well Metriplates™. […] Following the 30-minute incubation, the assay mixtures were quenched by the addition of 3 μL of 250 mM EDTA, and the substrate and phosphorylated product were separated by capillary electrophoresis and detected using LabChip® Caliper 3000 (Caliper Life Sciences).

[1] = Table I, PAK1 Ki class, read-out: Ki

T1 sequence (Q13153 249-545): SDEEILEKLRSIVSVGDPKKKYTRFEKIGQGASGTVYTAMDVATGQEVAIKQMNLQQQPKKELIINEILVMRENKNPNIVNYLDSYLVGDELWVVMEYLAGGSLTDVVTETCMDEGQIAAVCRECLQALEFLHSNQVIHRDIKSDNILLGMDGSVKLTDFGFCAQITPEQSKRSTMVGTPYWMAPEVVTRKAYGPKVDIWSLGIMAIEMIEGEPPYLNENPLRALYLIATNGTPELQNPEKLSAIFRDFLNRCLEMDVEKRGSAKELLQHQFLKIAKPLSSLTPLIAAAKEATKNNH

| Compound | Ki [1] [nM] | further results |
| --- | --- | --- |
| c1ccc([C@@H]2C[C@H]2c2cc(Nc3ccnc(NCc4cccc5[nH]ccc45)n3)n[nH]2)cc1 (racemic) [I-57, N^2-((1H-indol-4-yl)methyl)-N^4-(5-((trans)-2-phenylcyclopropyl)-1H-pyrazol-3-yl)pyrimidine-2,4-diamine] | 250 to 1000 |  |
| Fc1ccccc1[C@H]1C[C@@H]1c1cc(Nc2ccnc(NCc3cccc4[nH]ccc34)n2)n[nH]1 (racemic) [I-118, N^2-((1H-indol-4-yl)methyl)-N^4-(5-(trans-2-(2-fluorophenyl)cyclopropyl)-1H-pyrazol-3-yl)pyrimidine-2,4-diamine] | 250 to 1000 |  |
| Clc1c(CNc2nccc(Nc3cc(C4CC4)[nH]n3)n2)ccc2[nH]cnc12 [I-3, N^2-[(4-Chloro-1H-benzimidazol-5-yl)methyl]-N^4-(5-cyclopropyl-1H-pyrazol-3-yl)pyrimidine-2,4-diamine] |  | Ki (Ki, Table I, PAK1 Ki class): < 50 nM |
| Cc1cc(Nc2cc(C3CC3)[nH]n2)nc(N[C@@H](C)c2ccc3[nH]cnc3c2)n1 [I-4, (S)—N^2-(1-(1H-benzo[d]imidazol-5-yl)ethyl)-N^4-(5-cyclopropyl-1H-pyrazol-3-yl)-6-methylpyrimidine-2,4-diamine] | 50 to 250 |  |
| C[C@H](Nc1nccc(Nc2cc(C3CC3)[nH]n2)n1)c1ccc2[nH]cnc2c1 [I-5, N^2-[(1S)-1-(1H-Benzimidazol-5-yl)ethyl]-N^4-(5-cyclopropyl-1H-pyrazol-3-yl)pyrimidine-2,4-diamine] |  | Ki (Ki, Table I, PAK1 Ki class): < 50 nM |
| c1cc(Nc2cc(C3CC3)[nH]n2)nc(NCc2ccc3[nH]cnc3c2)n1 [I-13, N^2-((1H-Benzo[d]imidazol-5-yl)methyl)-N^4-(5-cyclopropyl-1H-pyrazol-3-yl)pyrimidine-2,4-diamine] |  | Ki: < 50 nM |
| c1cc(Nc2cc(C3CC3)[nH]n2)nc(NCc2ccc3[nH]ccc3c2)n1 [I-15, N^2-((1H-Indol-5-yl)methyl)-N^4-(5-cyclopropyl-1H-pyrazol-3-yl)pyrimidine-2,4-diamine] |  | Ki: < 50 nM |
| Cc1c(CNc2nccc(Nc3cc(C4CC4)[nH]n3)n2)ccc2[nH]cnc12 [I-16, N^4-(5-Cyclopropyl-1H-pyrazol-3-yl)-N^2-((4-methyl-1H-benzo[d]imidazol-5-yl)methyl)pyrimidine-2,4-diamine] | 50 to 250 |  |
| CC(C)(Nc1nccc(Nc2cc(C3CC3)[nH]n2)n1)c1ccc2[nH]cnc2c1 [I-17, N^2-(2-(1H-Benzo[d]imidazol-5-yl)propan-2-yl)-N^4-(5-cyclopropyl-1H-pyrazol-3-yl)pyrimidine-2,4-diamine] | 50 to 250 |  |
| C[C@H](Nc1nc(Nc2cc(C3CC3)[nH]n2)cc(C(F)(F)F)n1)c1ccc2[nH]ccc2c1 [I-18, (S)—N^2-(1-(1H-indol-5-yl)ethyl)-N^4-(5-cyclopropyl-1H-pyrazol-3-yl)-6-(trifluoromethyl) pyrimidine-2,4-diamine] | 50 to 250 |  |
| Cc1cc(Nc2cc(C3CC3)[nH]n2)nc(NCc2ccc3[nH]ccc3c2Cl)n1 [I-19, N^2-((4-chloro-1H-indol-5-yl)methyl)-N^4-(5-cyclopropyl-1H-pyrazol-3-yl)-6-methylpyrimidine-2,4-diamine] | 50 to 250 |  |
| Clc1c(CNc2nccc(Nc3cc(C4CC4)[nH]n3)n2)ccc2[nH]ccc12 [I-20, N^2-((4-chloro-1H-indol-5-yl)methyl)-N^4-(5-cyclopropyl-1H-pyrazol-3-yl)pyrimidine-2,4-diamine] | 50 to 250 |  |
| C[C@H](Nc1nccc(Nc2cc(OCc3ccccc3)[nH]n2)n1)c1ccc2[nH]cnc2c1 [I-21, N^2-[(1S)-1-(1H-Benzimidazol-5-yl)ethyl]-N^4-(5-benzyloxy-1H-pyrazol-3-yl)pyrimidine-2,4-diamine] | 50 to 250 |  |
| C[C@H](Nc1nccc(Nc2cc(C3CC3)[nH]n2)n1)c1ccc2[nH]ccc2c1Cl [I-22, (S)—N^2-(1-(4-chloro-1H-indol-5-yl)ethyl)-N^4-(5-cyclopropyl-1H-pyrazol-3-yl)pyrimidine-2,4-diamine] | 50 to 250 |  |
| Cc1c[nH]c2ccc(CNc3nccc(Nc4cc(C5CC5)[nH]n4)n3)cc12 [I-25, N^4-(5-cyclopropyl-1H-pyrazol-3-yl)-N^2-((3-methyl-1H-indol-5-yl)methyl)pyrimidine-2,4-diamine] | 50 to 250 |  |
| Cc1cc(CNc2nccc(Nc3cc(C4CC4)[nH]n3)n2)cc2nc[nH]c12 [I-26, N^4-(5-Cyclopropyl-1H-pyrazol-3-yl)-N^2-((7-methyl-1H-benzo[d]imidazol-5-yl)methyl)-pyrimidine-2,4-diamine] | 50 to 250 |  |
| Fc1cc2[nH]cnc2cc1CNc1nccc(Nc2cc(C3CC3)[nH]n2)n1 [I-28, N^4-(5-Cyclopropyl-1H-pyrazol-3-yl)-N^2-((6-fluoro-1H-benzo[d]imidazol-5-yl)methyl)pyrimidine-2,4-diamine] | 50 to 250 |  |
| Fc1c(CNc2nccc(Nc3cc(C4CC4)[nH]n3)n2)ccc2[nH]cnc12 [I-29, N^4-(5-Cyclopropyl-1H-pyrazol-3-yl)-N^2-[(4-fluoro-1H-benzimidazol-5-yl)methyl]pyrimidine-2,4-diamine] |  | Ki: 250 to 1000 nM |
| Cc1cc2[nH]cnc2cc1CNc1nccc(Nc2cc(C3CC3)[nH]n2)n1 [I-30, N^4-(5-Cyclopropyl-1H-pyrazol-3-yl)-N^2-[(6-methyl-1H-benzimidazol-5-yl)methyl]pyrimidine-2,4-diamine] | 250 to 1000 |  |
| Cc1cnc(N[C@@H](C)c2ccc3[nH]ccc3c2)nc1Nc1cc(C2CC2)[nH]n1 [I-31, (S)—N^2-(1-(1H-indol-5-yl)ethyl)-N^4-(5-cyclopropyl-1H-pyrazol-3-yl)-5-methylpyrimidine-2,4-diamine] | 250 to 1000 |  |
| Cc1cnc(NCc2ccc3[nH]cnc3c2)nc1Nc1cc(C2CC2)[nH]n1 [I-32, N^2-(1H-Benzoimidazol-5-ylmethyl)-N^4-(5-cyclopropyl-1H-pyrazol-3-yl)-5-methyl-pyrimidine-2,4-diamine] | 250 to 1000 |  |

The next lines start with results.

| Ki [1] [nM] | Compound | further results |
| --- | --- | --- |
| 50 to 250 | C[C@H](Nc1nccc(Nc2cc(C3CC3(F)F)[nH]n2)n1)c1ccc2[nH]ccc2c1 (mixture of isomers) [I-66, N^2—((S)-1-(1H-indol-5-yl)ethyl)-N^4-(5-(2,2-difluorocyclopropyl)-1H-pyrazol-3-yl)pyrimidine-2,4-diamine] |  |
| 50 to 250 | c1ccc([C@@H]2C[C@H]2c2cc(Nc3ccnc(NCc4ccc5[nH]cnc5c4)n3)n[nH]2)cc1 (racemic) [I-27, N^2-(1H-Benzimidazol-5-ylmethyl)-N^4-[5-[(trans)-2-phenylcyclopropyl]-1H-pyrazol-3-yl]pyrimidine-2,4-diamine] |  |
| < 50 | F[C@@H]1C[C@H]1c1cc(Nc2ccnc(NCc3cccc4[nH]ccc34)n2)n[nH]1 (racemic) [I-80, trans-N^2-((1H-indol-4-yl)methyl)-N^4-(5-(2-fluorocyclopropyl)-1H-pyrazol-3-yl)pyrimidine-2,4-diamine] |  |
| 50 to 250 | F[C@@H]1C[C@@H]1c1cc(Nc2ccnc(NCc3cccc4[nH]ccc34)n2)n[nH]1 (racemic) [I-81] |  |
| < 50 | C[C@H](Nc1nccc(Nc2cc([C@@H]3C[C@@H]3F)[nH]n2)n1)c1ccc2[nH]cnc2c1 (single isomer, unassigned) [I-67] |  |
| 50 to 250 | C[C@H](Nc1nccc(Nc2cc([C@H]3C[C@@H]3c3ccccc3F)[nH]n2)n1)c1ccc2[nH]cnc2c1 (stereo in doubt) [I-23, N^2—((S)-1-(1H-benzo[d]imidazol-5-yl)ethyl)-N^4-(5-((trans)-2-(2-fluorophenyl)cyclopropyl)-1H-pyrazol-3-yl)pyrimidine-2,4-diamine] |  |
| 50 to 250 | C[C@H](Nc1nccc(Nc2cc([C@H]3C[C@@H]3c3ccccc3)[nH]n2)n1)c1ccc2[nH]cnc2c1 (stereo in doubt) [I-24, N^2—((S)-1-(1H-benzo[d]imidazol-5-yl)ethyl)-N^4-(5-((trans)-2-phenylcyclopropyl)-1H-pyrazol-3-yl)pyrimidine-2,4-diamine] |  |
| < 50 | C[C@H](Nc1nccc(Nc2cc(C3CCC3)[nH]n2)n1)c1ccc2[nH]cnc2c1 [I-1, (S)—N^2-(1-(1H-benzo[d]imidazol-5-yl)ethyl)-N^4-(5-cyclobutyl-1H-pyrazol-3-yl)pyrimidine-2,4-diamine] |  |
| < 50 | C[C@H](Nc1nccc(Nc2cc(C3CCCC3)[nH]n2)n1)c1ccc2[nH]cnc2c1 [I-2, (S)—N^2-(1-(1H-benzo[d]imidazol-5-yl)ethyl)-N^4-(5-cyclopentyl-1H-pyrazol-3-yl)pyrimidine-2,4-diamine] |  |
| < 50 | CC[C@H](Nc1nccc(Nc2cc(C3CC3)[nH]n2)n1)c1ccc2[nH]cnc2c1 [I-6, N^2-[(1S)-1-(1H-benzimidazol-5-yl)propyl]-N^4-(5-cyclopropyl-1H-pyrazol-3-yl)pyrimidine-2,4-diamine] |  |
| < 50 | C[C@@H](c1ccc2[nH]cnc2c1)N(C)c1nccc(Nc2cc(C3CC3)[nH]n2)n1 [I-9, (S)—N^2-(1-(1H-benzo[d]imidazol-5-yl)ethyl)-N^4-(5-cyclopropyl-1H-pyrazol-3-yl)-N^2-methylpyrimidine-2,4-diamine] |  |
| < 50 | Cc1cc(Nc2cc(C3CC3)[nH]n2)nc(NCc2ccc3[nH]cnc3c2)n1 [I-10, N^2-((1H-benzo[d]imidazol-5-yl)methyl)-N^4-(5-cyclopropyl-1H-pyrazol-3-yl)-6-methylpyrimidine-2,4-diamine] |  |
| < 50 | CN(Cc1ccc2[nH]cnc2c1)c1nccc(Nc2cc(C3CC3)[nH]n2)n1 [I-12, N^2-((1H-Benzo[d]imidazol-5-yl)methyl)-N^4-(5-cyclopropyl-1H-pyrazol-3-yl)-N^2-methylpyrimidine-2,4-diamine] |  |
| < 50 | C[C@H](Nc1nccc(Nc2cc(C3CCOC3)[nH]n2)n1)c1ccc2[nH]cnc2c1 (stereo partly drawn) [I-14, N^2—((S)-1-(1H-benzo[d]imidazol-5-yl)ethyl)-N^4-(5-(tetrahydrofuran-3-yl)-1H-pyrazol-3-yl)pyrimidine-2,4-diamine] |  |
